Patent US20250100962A1 (CITY OF HOPE, priority 2023, published 2025)
Entries after “also recorded” stand apart in the source; their conditions may differ.

Tests used:
[1] = system: U2OS cells containing Per2::dLuc luciferase reporter; test: Real-time bioluminescence monitoring of Per2::Luciferase reporter in U2OS cells (LumiCycle); assay type: cell-based; details: for Modulatory Property: clock-modulatory classification
Method: U2OS cells or mouse fibroblasts (MF) containing a Per2-luciferase reporter (Yoo et al., 2004) were seeded at 4×10^5 concentration on 24 well plates and treated at 90% confluence with 1 ml 1×Fresh explant medium with desired compounds and controls. The seeding density was decided after trying several densities and choosing the one that after 24 h lead to 90% confluence. 1× Fresh explant medium was produced using 50% 2×DMEM buffer stock [DMEM powder (Gibco—Thermo Fisher CN: 12800-017), Sterile MilliQ water, pH7 1 M HEPES (Gibco—Thermo Fisher CN:15630080) and 7.5% Sodium Bicarbonate (Gibco—Thermo Fisher CN: 25080094)], 10% FBS (Cytiva), 37.9% Sterile MiliQ water, 1% PSG 100× (Gibco—Thermo Fisher CN: 10378016), 0.1% Sodium Hydroxixe (NaOH) 100 mM (Fishel Chemical CN: S318-500), 1% XenoLight D-Luciferin—Monopotassium Salt Bioluminiscent Substrate 100 mM (PerkinElmer CN: 122799). Treated cells were introduced to the LumiCycle96 (ActiMetrics) were they were cultured and Per2-luciferafe reporter luminescence was measured for 6 days. Raw and subtracted results for 5 days were exported and data was calculated as luminescence counts per second.

[2] = system: Wnt signaling activity; test: TOPFlash luciferase reporter assay (Example 3); assay type: cell-based; details: for TOPFlash reporter activity, Wnt-stimulated: Wnt3a media
Method: TOPFlash luciferase reporter assay. M50 Super 8×TOPFlash luciferase reporter containing Wnt-responsive TCF bindings sites was a gift from Randall Moon (Veeman, Slusarski, Kaykas et al., 2003) obtained from Addgene (Addgene plasmid #12456). Cells were seeded and grown overnight, and cell transfection was performed at 90% confluency. 24 hours following transfection, cells were treated using 10% Wnt3a conditioned media obtained from L Wnt-3A cell line (ATCC CRL-2647) to induce luciferase activity. Luciferase activity was assayed using Dual-Luciferase Reporter Assay Kit (Promega) in 96-well black plates. TOPFlash luciferase reporter luminescence was measured on microplate reader (TECAN infinite M200pro) and normalized to control FOPFlash activity, as previously described (Guo et al., 2012). The mean and standard deviation values were calculated for each well and graphed.

[3] = system: C3H10T1/2 cells; test: Clock and Wnt gene/protein expression in C3H10T1/2 cells; assay type: cell-based; details: for β-catenin protein level during adipogenic differentiation: 1 μM, before and after adipogenic induction; for mRNA levels of Wnt ligands and receptors / clock gene expression: 10T1/2 cells; for mRNA levels of Wnt ligands and receptors: 6 hours; for clock gene expression: RT-qPCR
Method: (§1) Immunoblot analysis. Total protein was extracted using lysis buffer containing 3% NaCl, 5% Tris-HCl, 10% Glycerol, 0.5% Triton X-10 in MilliQ water with protease inhibitor cocktail. 20-40 μg of total protein was resolved on 10% SDS-PAGE gels followed by immunoblotting on PVDF membranes (Bio-rad). Membranes were developed by chemiluminescence (SuperSignal West Pico, Pierce Biotechnology) and signals were obtained via a chemiluminescence imager (Amersham Imager 680, GE Biosciences).
RNA extraction and RT-qPCR analysis. PureLink RNA Mini Kit (Invitrogen) were used to isolate total RNA from cells. cDNA was generated using Revert Aid RT kit (ThermoFisher) and quantitative PCR was performed using SYBR Green Master Mix (Thermno Fisher) in triplicates on ViiA 7 Real-Time PCR System (Applied Biosystems). Relative expression levels were determined using the comparative Ct method with normalization to 361B4 as internal control.

[4] = system: C3H10T1/2 cells; test: Adipogenic differentiation of C3H10T1/2 mesenchymal precursors; assay type: cell-based; details: for adipogenic factors C/EBPα and PPARγ / mature adipocyte marker expression (FASN): 1 μM, immunoblot; for adipogenic factors C/EBPα and PPARγ: day 7 differentiated; for mature adipocyte formation / lipid accumulation: day 8, oil-red-O and Bodipy
Method: Cell culture and adipogenic differentiation. 3T3-L1 and C3H10T1/2 cell lines were obtained from ATCC, and maintained in DMEM with 10% fetal bovine serum supplemented with 1% Penicillin-Streptomycin-Glutamine, as previously described (Nam, Guo, Chatterjee et al., 2015; Liu, Xiong, Nam et al., 2020). 0.25% Trypsin was used for digestion and passaging of these cell lines. For adipogenic differentiation induction media (1.6 μM insulin, 1 μM dexamethasone, 0.5 mM IBMX, 0.5 uM Rosiglitazone) was used for 3 days followed by maintenance medium with insulin for 3 days for 3T3-L1 and 5 days for C3H10T1/2 cells, as previously described (Liu et al., 2020).
Oil-red-O and Bodipy staining. These stainings for neutral lipids during adipogenic differentiation were performed as previously described (Nam et al., 2015). Briefly, for oil-red-O staining, cells were fixed using 10% formalin and incubated using 0.5% oil-red-O solution for 1 hour. Bodipy 493/503 was used at 1 mg/L together with DAPI for 15 minutes, following 4% paraformaldehyde fixation and permeabilization with 0.2% triton-X100.
as §1

[5] = system: primary preadipocytes; test: Adipogenic differentiation of primary preadipocytes; assay type: cell-based, mice; details: for mature adipocyte formation: 0.5 and 1 μM
Method: Primary preadipocyte isolation and adipogenic induction. The stromal vascular fraction containing preadipocytes were isolated from subcutaneous fat pads, as described (Chatterjee, Nam, Guo et al., 2013). Briefly, fat pads were cut into pieces and digested using 0.1% collagenase Type 1 with 0.8% BSA at 37° C. in a horizontal shaker for 60 minutes, passed through Nylon mesh and centrifuged to collect the pellet containing the stromal vascular fraction with preadipocytes. Preadipocytes were cultured in F12/DMEM supplemented with bFGF (2.5 ng/ml), expanded for two passages and subjected to differentiation in 6-well plates at 90% confluency. Adipogenic differentiation was induced for 2 days in medium containing 10% FBS, 1.6 μM insulin, 1 μM dexamethasone, 0.5 mM IBMX, 0.5 μM rosiglitazone before switching to maintenance medium for 4 days with insulin only. Nobiletin at indicated concentrations were added for the entire differentiation time course. Oil-red-O and Bodipy staining. These stainings for neutral lipids during adipogenic differentiation were performed as previously described (Nam et al., 2015). Briefly, for oil-red-O staining, cells were fixed using 10% formalin and incubated using 0.5% oil-red-O solution for 1 hour. Bodipy 493/503 was used at 1 mg/L together with DAPI for 15 minutes, following 4% paraformaldehyde fixation and permeabilization with 0.2% triton-X100. Immunoblot analysis. Total protein was extracted using lysis buffer containing 3% NaCl, 5% Tris-HCl, 10% Glycerol, 0.5% Triton X-10 in MilliQ water with protease inhibitor cocktail. 20-40 μg of total protein was resolved on 10% SDS-PAGE gels followed by immunoblotting on PVDF membranes (Bio-rad). Membranes were developed by chemiluminescence (SuperSignal West Pico, Pierce Biotechnology) and signals were obtained via a chemiluminescence imager (Amersham Imager 680, GE Biosciences).

[6] = U2OS Per2 luciferase reporter, recording 5-6 days, vs DMSO

| Compound | circadian period length [1, 6] | Modulatory Property [1] | TOPFlash reporter activity, basal condition [2] | TOPFlash reporter activity, Wnt-stimulated [2] | β-catenin protein level during adipogenic differentiation [3] | mRNA levels of Wnt ligands and receptors [3] | clock gene expression [3] | adipogenic factors C/EBPα and PPARγ [4] | mature adipocyte marker expression (FASN) [4] | mature adipocyte formation / lipid accumulation [4] | mature adipocyte formation ([5]; six days of differentiation) | other results |
| --- | --- | --- | --- | --- | --- | --- | --- | --- | --- | --- | --- | --- |
| CCCCCC/C=N/C(=N)NC(=N)Nc1ccc(Cl)cc1 [CM002] | shortening of period length starting at 0.2 μM that was maintained at 2 μM; also recorded: dose-dependent effect on inducing clock period length shortening | strong clock activator | sufficient to stimulate TOPFlash reporter activity to a similar degree as CHX | at lower concentrations at 0.1 and 0.2 μM were sufficient to induce TOPFlash reporter activity comparable to that of CHX at 0.5 μM | partially reverse the decline of β-catenin level at the differentiated state | significant induction of Wnt ligands including Wnt1 and Wnt10a transcripts | induction of core clock transcription activators, CLOCK and Bmal1, together with up-regulation of its direct transcriptional target within the molecular clock loop, Nr1d1 | strong inhibition of adipogenic factors C/EBPα and PPARγ | substantially lower | markedly suppressed their differentiation in a dose-dependent manner | strongly inhibited their differentiation; also recorded: dose-dependent reductions by CM002 at 0.5 and 1 μM concentration | LumiCycle Result: Clock activity, Amplitude ([1]; Table 1, U2OS Per2::dLuc): Amplitude: Increased; LumiCycle Result: Clock activity, Period ([1]; Table 1, U2OS Per2::dLuc): Period: Shortening; LumiCycle Result: Clock activity (overall) ([1]; U2OS Per2::dLuc, CHX analogs screened): strongest effect on activating circadian clock function; reduction of adipocyte formation in Bmal1-deficient (BMKO) preadipocytes ([5]; six days of differentiation): severely blunted; adipocyte formation, compound given after initial two days of adipogenic induction ([5]; vs presence throughout differentiation): still retained its efficacy of blocking adipocyte formation largely to the same extent |
| [H]/N=C(\N/C(=N/[H])NCCCCCCNC(=N)NC(=N)Nc1ccc(Cl)cc1)Nc1ccc(Cl)cc1 [CHX, chlorhexidine] | dose-dependent reduction of period length from 0.2 to 1 μM | clock activator | could induce Wnt signaling activity | could induce Wnt signaling activity | sufficient to re-activate the lost b-catenin protein level during adipogenic differentiation | induced the mRNA levels of Wnt1, Wnt10a, Fzd2, Fzd5 | inductions of Pers and Crys | significantly impaired levels of adipogenic factors | attenuated expression of fatty acid synthase | attenuated mature adipocyte formation | dose-dependent, marked effect on suppressing mature adipocyte formation | toxicity in reporter cells ([1]; CHX at 5 and 10 μM): significant toxicity with reduced amplitude; effective concentration range, dose response of bioluminescence activity ([1]; Per2-Luc U2OS cells): 0.2 to 2 µM; clock cycling amplitude [1, 6]: at a low concentration of 0.2 μM induced clock amplitude, but not at any higher concentrations examined; adipogenic maturation, early stage ([4]; 5 days after adipogenic induction, oil-red-O): dose-dependent inhibition of adipogenic maturation; FASN, terminal differentiation marker ([5]; day 6 of differentiation): markedly attenuated the terminal differentiation marker of adipocytes, FASN; adipogenic factor induction ([5]; day 6 of differentiation): only resulted in a tendency toward suppressing adipogenic factor induction |
